Source: patent US20030017186A1, “Carboxylic acid fluorides as pesticides” (priority 1999, published 2003)

What was measured:
[1] = system: House longhorn beetle (Hylotrupes bajulus) larvae; test: Fumigation test in glass vessel, house longhorn beetle larvae in wood blocks; type: in vivo; conditions: HYLOBA larvae in wood blocks
[2] = system: wood and storage pests; test: Fumigation test, wood and storage pests (overall statements); type: in vivo
Text: (§1) The test organisms, separated by species, were placed into a glass vessel measuring 30 cm×30 cm×60 cm, which was sealed with a glass lid so as to be airtight. The adults and the larvae of the mealworm beetle (Tenebrio molitor) and the broad-horned flour beetle (Gnathocerus cornutus) were placed into small glass vessels approximately 5 cm in diameter, which were closed with a gauze lid and in which they could freely move about. The larvae of the rice weevil had burrowed into seeds of grain. The wood pest larvae were inserted into small blocks of wood measuring 5 cm×2.5 cm×2 cm. The openings were sealed with wads of cotton wool. Only one each of the larvae of the house longhorn beetle (Hylotrupes bajulus) was inserted into a piece of wood, while 6-8 larvae of the common furniture beetle (Anobium punctatum) were inserted into each piece of wood.
(§2) The respective gas was then introduced into the fumigation vessel through a gas line from a gas tank that contained the specified amount of gas. After a defined time period, the fumigation vessel was purged with compressed air. The discharged gas was purified by an attached gas scrubber.
(§3) The beetles were observed until they died. This point was recorded for each species. The larvae of the wood pests as well as the larvae of the rice weevil (Sitophilus oryzae) had to be picked out of the wood or the grain to check their condition. If any of the animals were still alive, the wooden test blocks remaining in the vessel were fumigated again and were reexamined after the corresponding time span had elapsed. The same number of animals in the untreated control was also checked at each point.
(§4) The vitality of the animals was checked at certain time intervals. The beetles could be observed through the fumigation vessel. This was also true for the larvae of the mealworm beetle and the broad-horned flour beetle. The wooden test blocks of the wood pest larvae were opened with hammer and chisel. Tweezers were used to pull the rice weevil larvae out of the grain seeds. The exact time intervals and the number of the evaluated pests were documented in the test results.

[3] = system: Saw-toothed grain beetle (Oryzaephilus surinamensis); test: Fumigation test in glass vessel, saw-toothed grain beetles; type: in vivo; conditions: ORYZSA beetles
[4] = system: Mealworm beetle (Tenebrio molitor); test: Fumigation test in glass vessel, mealworm beetles; type: in vivo; conditions: TENEMO beetles
[5] = system: wood pests (house longhorn beetle, common furniture beetle); test: Fumigation test, wood pests; type: in vivo, Hylotrupes bajulus, Anobium punctatum
Text: as §1, §2, §3, §4

[6] = system: Common furniture beetle (Anobium punctatum) larvae; test: Fumigation test in glass vessel, common furniture beetle larvae in wood blocks; type: in vivo; conditions: ANOBPU larvae in wood blocks
[7] = Example 5, ACF 50.6/48.2/51.4 g/m^3, SF 47.4/44.6/41 g/m^3 (1st/2nd/3rd fumigation), 23/23/22° C.
[8] = Example 7, ACF 53.0/54.6/0 g/m^3, second gas (SF) 43.6/41.4/39.8 g/m^3 (1st/2nd/3rd fumigation), 20.0/20.2/19.8 C.
[9] = Example 4, gas 36.5 g/m^3, 19.3° C., 54% rel. air humidity

Structure (SMILES): CC(=O)F [ACF, acetyl fluoride]
- Number alive, 1 hr. after Start of Fumigation [1, 7]: 0
- Number alive, 3 hrs. after Start of Fumigation [1, 7]: 1
- Number alive, 6 hrs after Start of Fumigation [1, 7]: 0
- Number dead, 1 hr. after Start of Fumigation [1, 7]: 4
- Number dead, 3 hrs. after Start of Fumigation [1, 7]: 2
- Number dead, 6 hrs after Start of Fumigation [1, 7]: 7
- Number alive, 1 hr. after 1st Fumigation [1, 8]: 2
- Number alive, 3 hrs. after 1st Fumigation [1, 8]: 0
- Number dead, 1 hr. after 1st Fumigation [1, 8]: 3
- Number dead, 3 hrs. after 1st Fumigation [1, 8]: 10
- Effectiveness against exposed beetles and larvae ([2]; Conclusion of Examples 1-5): very effective
- Comparison of action on wood and storage pests ([2]; Example 7, against several of the pest species tested): superior to chlorodifluoroacetyl fluoride
- Number alive, 1 hr. after Start of Fumigation [3, 9]: 0
- Number dead, 1 hr. after Start of Fumigation [3, 9]: 25
- Number alive, 30 min. after Start of Fumigation [3, 7]: 0
- Number dead, 30 min. after Start of Fumigation [3, 7]: 15
- Number alive, 30 min. after 1st Fumigation [3, 8]: 0
- Number dead, 30 min. after 1st Fumigation [3, 8]: 15
- Number alive, 1 hr. after Start of Fumigation [4, 9]: 0
- Number dead, 1 hr. after Start of Fumigation [4, 9]: 10
- Number alive, 30 min. after Start of Fumigation [4, 7]: 0
- Number dead, 30 min. after Start of Fumigation [4, 7]: 10
- Number alive, 30 min. after 1st Fumigation [4, 8]: 0
- Number dead, 30 min. after 1st Fumigation [4, 8]: 10
- Effectiveness against wood pests ([5]; Conclusion, especially at temperatures in excess of 20° C.): very effective
- Condition of the larvae of the wood pests after 24 hours ([5]; Example 4, house longhorn beetle larvae and 2 common furniture beetle larvae, gas 36.5 g/m^3, 19.3° C., evaluated only after 24 hours): dead
- Number alive, 1 hr. after Start of Fumigation [6, 7]: 1
- Number alive, 3 hrs. after Start of Fumigation [6, 7]: 2
- Number alive, 6 hrs after Start of Fumigation [6, 7]: 0
- Number dead, 1 hr. after Start of Fumigation [6, 7]: 3
- Number dead, 3 hrs. after Start of Fumigation [6, 7]: 2
- Number dead, 6 hrs after Start of Fumigation [6, 7]: 8
- Number alive, 1 hr. after 1st Fumigation [6, 8]: 5
- Number alive, 3 hrs. after 1st Fumigation [6, 8]: 2
- Number alive, 6 hrs after 1st Fumigation [6, 8]: 4
- Number dead, 1 hr. after 1st Fumigation [6, 8]: 1
- Number dead, 3 hrs. after 1st Fumigation [6, 8]: 4
- Number dead, 6 hrs after 1st Fumigation [6, 8]: 2
